Earlier results, collected in patent US11351213B2, “Composition for the prevention and/or treatment of respiratory tract disorders” (NEILOS S.R.L., priority 2017, dated 2022).

Experiments:
[1] = tested on: patients affected by COPD; conditions: HIACE study
[2] = not given; remark: listed apart in the source
[3] = COPD patients under treatment for six months

| Compound | exacerbations ([1]; COPD, reduction from 1.71 times a year) | forced expiratory flow ([1]; patients affected by COPD) | reduction of days of malaise (COPD patients; COPD) | reduction of exacerbations of the pathology (COPD patients; COPD) | reduction of hospitalisations for COPD (COPD patients; COPD) | FEV1 (forced expiratory volume at the first second) (COPD patients; [3]) | maximum expiratory flow (COPD patients; [3]) | FEV1 (COPD patients; after a brief therapy of 4 weeks) | activity on bronchi in vitro | activity on bronchi in vivo [2] |
| --- | --- | --- | --- | --- | --- | --- | --- | --- | --- | --- |
| CC(=O)N[C@@H](CS)C(=O)O [NAC, N-acetyl-L-cysteine] | 0.96 times a year | rose from 25% to 75% | 0.56 days/month | 0.07 exacerbations/month | 30% | significant increase | significant increase | from 25% to 30% |  |  |
| O=c1c2ccccc2nc2n1CC[C@@H]2O [Vasicinone, vasicinone] |  |  |  |  |  |  |  |  | bronchodilating activity | bronchoconstricting activity |
| O[C@H]1CCN2Cc3ccccc3N=C12 [vasicine] |  |  |  |  |  |  |  |  | bronchodilating activity | bronchodilating activity |
